Source: publication PMC9322123, “Design and Synthesis of New Pyrimidine-Quinolone Hybrids as Novel hLDHA Inhibitors” (Pharmaceuticals, 2022)
Entries after “also recorded” stand apart in the source; their conditions may differ. Where two headings read alike, the source gives them in different places.

What was measured:
hLDHA [1] = molecular target: T1, hLDHA (Homo sapiens, UniProt P00338); test: hLDHA enzymatic assay (kinetic fluorometric, pyruvate substrate, NADH co-factor); format: biochemical; conditions: for IC50: hLDHA, 1 mM pyruvate, 151 µM β-NADH, compounds 0.048–100 µM, n = 3
T1 construct: purchased Abcam
Method: The inhibitory activity of the pyrimidine-quinolone hybrids 10, 15, 19, and 24–31(a–c) against the hLDHA enzyme was measured by a kinetic spectrofluorometric assay.
hLDHA activity was determined throughout a fluorometric method with pyruvate as substrate and NADH co-factor, as previously reported and modified as described here: in each well, the final volume was set to 200 µL, and the final concentrations were 100 mM potassium phosphate buffer, 0.041 units/mL hLDHA (95%, specific activity >300 units/mg and concentration of 0.5 mg/mL, Abcam, Cambridge, United Kingdom), 151 µM β-NADH, 1 mM pyruvate (saturated conditions), and DMSO solutions (2%, v/v) of pure compounds at concentrations in the range of 0.048–100 µM. The reaction was initiated by the addition of pyruvate, and the NADH concentration decrease was measured for 10 min in a TECAN Infinite 200 Pro M Plex fluorescence plate reader at 28 °C, with excitation at 340 nm and emission at 460 nm. The percentage of activity for each measure was calculated by comparison between the maximum slope of each compound concentration and the maximum slope when no inhibitor (DMSO only) was in the well (100% enzymatic activity). The compound 3-[[3[(cyclopropylamino)sulfonyl]-7-(2,4-dimethoxy-5-pyrimidinyl)-4-quinolinyl]amino]-5-(3,5-difluorophenoxy)benzoic acid (GSK 2837808 A, Tocris, Minneapolis, MN, USA) was used as a positive control.
The measurements were obtained thrice, and data were expressed as the mean ± SD of n = 3 replicates for IC50 values. As-obtained data were later plotted in GraphPad Prism version 5.00 for Windows (GraphPad Software, La Jolla, CA, USA). Nonlinear regression analysis was chosen for dose response curve, representing the logarithm of inhibitor concentration vs. normalized enzymatic activity in order to calculate IC50 values.

[2] = Solubility as observed on handling; format: physicochemical
hLDHA [3] = molecular target: T1, hLDHA; design: method as in PMID 25466195; conditions: W31, ligand of complex 4R68; cited from earlier work

Row | IC50 (hLDHA [1]) [µM] | SMILES | other results
1 | > 100 | O=c1[nH]c2ccccc2cc1COc1ccc(Nc2nccc(-c3ccc(Cl)cc3)n2)cc1 [Compound 15, 3-((4-((4-(4-Chlorophenyl)pyrimidin-2-yl)amino)phenoxy)methyl)quinolin-2(1H)-one] | solubility (in words) [2]: highly insoluble; also recorded: problems related with solubility
2 | > 100 | O=c1[nH]c2ccccc2cc1COc1ccccc1Oc1nccc(-c2ccc(Cl)cc2)n1 [Compound 19, 3-((2-((4-(4-Chlorophenyl)pyrimidin-2-yl)oxy)phenoxy)methyl)quinolin-2(1H)-one] | 
3 | 31.5 | O=c1[nH]c2ccccc2cc1CSc1ccccc1Nc1nccc(-c2ccc(Cl)cc2)n1 [Compound 24a, 3-(((2-((4-(4-Chlorophenyl)pyrimidin-2-yl)amino)phenyl)thio)methyl)quinolin-2(1H)-one] | 
4 | 34.8 | O=c1[nH]c2ccc(Cl)cc2cc1CSc1ccccc1Nc1nccc(-c2ccc(Cl)cc2)n1 [Compound 24b, 6-Chloro-3-(((2-((4-(4-chlorophenyl)pyrimidin-2-yl)amino)phenyl)thio)meth-yl)quinolin-2(1H)-one] | 
5 | 79.1 | COc1ccc2[nH]c(=O)c(CSc3ccccc3Nc3nccc(-c4ccc(Cl)cc4)n3)cc2c1 [Compound 24c, 3-(((2-((4-(4-Chlorophenyl)pyrimidin-2-yl)amino)phenyl)thio)methyl)-6-methoxyquinolin-2(1H)-one] | 
6 | 26.9 | O=c1[nH]c2ccccc2cc1CSc1ccccc1Nc1nccc(-c2ccc(C(F)(F)F)cc2)n1 [Compound 25a, 3-(((2-((4-(4-(Trifluoromethyl)phenyl)pyrimidin-2-yl)amino)phenyl)thio)methyl)quinolin-2(1H)-one] | 
7 | 42.3 | O=c1[nH]c2ccc(Cl)cc2cc1CSc1ccccc1Nc1nccc(-c2ccc(C(F)(F)F)cc2)n1 [Compound 25b, 6-Chloro-3-(((2-((4-(4-(trifluoromethyl)phenyl)pyrimidin-2-yl)amino)phenyl)thio)methyl)quinolin-2(1H)-one] | 
8 | 71.8 | COc1ccc2[nH]c(=O)c(CSc3ccccc3Nc3nccc(-c4ccc(C(F)(F)F)cc4)n3)cc2c1 [Compound 25c, 6-Methoxy-3-(((2-((4-(4-(trifluoromethyl)phenyl)pyrimidin-2-yl)amino)phenyl)thio)methyl)quinolin-2(1H)-one] | 
9 | 17.8 | O=c1[nH]c2ccccc2cc1CSc1ccccc1Nc1nccc(-c2ccc3ccccc3c2)n1 [Compound 26a, 3-(((2-((4-(Naphthalen-2-yl)pyrimidin-2-yl)amino)phenyl)thio)methyl)quinolin-2(1H)-one] | 
10 | 20.3 | O=c1[nH]c2ccc(Cl)cc2cc1CSc1ccccc1Nc1nccc(-c2ccc3ccccc3c2)n1 [Compound 26b, 6-Chloro-3-(((2-((4-(naphthalen-2-yl)pyrimidin-2-yl)amino)phenyl)thio)me-thyl)quinolin-2(1H)-one] | 
11 | 27.7 | COc1ccc2[nH]c(=O)c(CSc3ccccc3Nc3nccc(-c4ccc5ccccc5c4)n3)cc2c1 [Compound 26c, 6-Methoxy-3-(((2-((4-(naphthalen-2-yl)pyrimidin-2-yl)amino)phenyl)thio)methyl)quinolin-2(1H)-one] | 
12 | > 100 | O=c1[nH]c2ccccc2cc1CSc1ccccc1Nc1nccc(-c2ccc3c(c2)OCO3)n1 [Compound 27a, 3-(((2-((4-(Benzo[d][1,3]dioxol-5-yl)pyrimidin-2-yl)amino)phenyl)thio)methyl)quinolin-2(1H)-one] | 
13 | 89 | O=c1[nH]c2ccc(Cl)cc2cc1CSc1ccccc1Nc1nccc(-c2ccc3c(c2)OCO3)n1 [Compound 27b, 3-(((2-((4-(Benzo[d][1,3]dioxol-5-yl)pyrimidin-2-yl)amino)phenyl)thio)methyl)-6-chloroquinolin-2(1H)-one] | 
14 | 60 | COc1ccc2[nH]c(=O)c(CSc3ccccc3Nc3nccc(-c4ccc5c(c4)OCO5)n3)cc2c1 [Compound 27c, 3-(((2-((4-(Benzo[d][1,3]dioxol-5-yl)pyrimidin-2-yl)amino)phenyl)thio)methyl)-6-methoxyquinolin-2(1H)-one] | 
15 | > 100 | O=c1[nH]c2ccccc2cc1CSc1ccc(Nc2nccc(-c3ccc(Cl)cc3)n2)cc1 [Compound 28a, 3-(((4-((4-(4-Chlorophenyl)pyrimidin-2-yl)amino)phenyl)thio)methyl)quinolin-2(1H)-one] | 
16 | > 100 | O=c1[nH]c2ccc(Cl)cc2cc1CSc1ccc(Nc2nccc(-c3ccc(Cl)cc3)n2)cc1 [Compound 28b, 6-Chloro-3-(((4-((4-(4-chlorophenyl)pyrimidin-2-yl)amino)phenyl)thio)meth-yl)quinolin-2(1H)-one] | 
17 | > 100 | COc1ccc2[nH]c(=O)c(CSc3ccc(Nc4nccc(-c5ccc(Cl)cc5)n4)cc3)cc2c1 [Compound 28c, 3-(((4-((4-(4-Chlorophenyl)pyrimidin-2-yl)amino)phenyl)thio)methyl)-6-methoxyquinolin-2(1H)-one] | 
18 | > 100 | O=c1[nH]c2ccccc2cc1CSc1ccc(Nc2nccc(-c3ccc(C(F)(F)F)cc3)n2)cc1 [Compound 29a, 3-(((4-((4-(4-(Trifluoromethyl)phenyl)pyrimidin-2-yl)amino)phenyl)thio)methyl)quinolin-2(1H)-one] | 
19 | 83.2 | O=c1[nH]c2ccc(Cl)cc2cc1CSc1ccc(Nc2nccc(-c3ccc(C(F)(F)F)cc3)n2)cc1 [Compound 29b, 6-Chloro-3-(((4-((4-(4-(trifluoromethyl)phenyl)pyrimidin-2-yl)amino)phenyl)thio)methyl)quinolin-2(1H)-one] | 
20 | > 100 | COc1ccc2[nH]c(=O)c(CSc3ccc(Nc4nccc(-c5ccc(C(F)(F)F)cc5)n4)cc3)cc2c1 [Compound 29c, 6-Methoxy-3-(((4-((4-(4-(trifluoromethyl)phenyl)pyrimidin-2-yl)amino)phenyl)thio)methyl)quinolin-2(1H)-one] | 
21 | 62.9 | O=c1[nH]c2ccccc2cc1CSc1ccc(Nc2nccc(-c3ccc4ccccc4c3)n2)cc1 [Compound 30a, 3-(((4-((4-(Naphthalen-2-yl)pyrimidin-2-yl)amino)phenyl)thio)methyl)quinolin-2(1H)-one] | 
22 | > 100 | O=c1[nH]c2ccc(Cl)cc2cc1CSc1ccc(Nc2nccc(-c3ccc4ccccc4c3)n2)cc1 [Compound 30b, 6-Chloro-3-(((4-((4-(naphthalen-2-yl)pyrimidin-2-yl)amino)phenyl)thio)methyl)quinolin-2(1H)-one] | 
23 | > 100 | COc1ccc2[nH]c(=O)c(CSc3ccc(Nc4nccc(-c5ccc6ccccc6c5)n4)cc3)cc2c1 [Compound 30c, 6-Methoxy-3-(((4-((4-(naphthalen-2-yl)pyrimidin-2-yl)amino)phenyl)thio)methyl)quinolin-2(1H)-one] | 
24 | > 100 | O=c1[nH]c2ccccc2cc1CSc1ccc(Nc2nccc(-c3ccc4c(c3)OCO4)n2)cc1 [Compound 31a, 3-(((4-((4-(Benzo[d][1,3]dioxol-5-yl)pyrimidin-2-yl)amino)phenyl)thio)methyl)quinolin-2(1H)-one] | inhibitory activity against hLDHA (in words) (hLDHA [1]): inactive
25 | 49.9 | O=c1[nH]c2ccc(Cl)cc2cc1CSc1ccc(Nc2nccc(-c3ccc4c(c3)OCO4)n2)cc1 [Compound 31b, 3-(((4-((4-(Benzo[d][1,3]dioxol-5-yl)pyrimidin-2-yl)amino)phenyl)thio)methyl)-6-chloroquinolin-2(1H)-one] | 
26 | > 100 | COc1ccc2[nH]c(=O)c(CSc3ccc(Nc4nccc(-c5ccc6c(c5)OCO6)n4)cc3)cc2c1 [Compound 31c, 3-(((4-((4-(Benzo[d][1,3]dioxol-5-yl)pyrimidin-2-yl)amino)phenyl)thio)methyl)-6-methoxyquinolin-2(1H)-one] | inhibitory activity against hLDHA (in words) (hLDHA [1]): inactive
27 | 19.6 | O=c1[nH]c2ccccc2cc1CSc1cccc(Nc2nccc(-c3ccc4ccccc4c3)n2)c1 [Compound 35a, 3-(((3-((4-(Naphthalen-2-yl)pyrimidin-2-yl)amino)phenyl)thio)methyl)quinolin-2(1H)-one] | 
28 | 24.6 | O=c1[nH]c2ccc(Cl)cc2cc1CSc1cccc(Nc2nccc(-c3ccc4ccccc4c3)n2)c1 [Compound 35b, 6-Chloro-3-(((3-((4-(naphthalen-2-yl)pyrimidin-2-yl)amino)phenyl)thio)me-thyl)quinolin-2(1H)-one] | 
29 | 50.1 | COc1ccc2[nH]c(=O)c(CSc3cccc(Nc4nccc(-c5ccc6ccccc6c5)n4)c3)cc2c1 [Compound 35c, 6-Methoxy-3-(((3-((4-(naphthalen-2-yl)pyrimidin-2-yl)amino)phenyl)thio)methyl)quinolin-2(1H)-one] | 
30 |  | C[C@H](OC(=O)Cc1ccc(Cl)c(SC2=C(O)C[C@@H](c3c(Cl)cccc3Cl)CC2=O)c1)c1ccccc1 [Compound W31] | IC50 (hLDHA [3]): 0.006 µM
